Several values for one entry are separate records, joined by “and”; a condition that tells them apart may be missing. Equal entries are not always repeated. Where two headings read alike, the source gives them in different places.
Columns and labels:
[1] = biological target: T1, recombinant hMAO-A (Homo sapiens, UniProt P21397); experiment: MAO-A inhibition assay (kynuramine substrate); type: biochemical; conditions: for remaining activity at 1 µM: compound at 1.0 µM, mean ± standard error of duplicate experiments, read-out: Residual Activity (%) MAO-A (1.0 µM); for IC50: mean ± standard error of duplicates, reference compounds after 30 min preincubation with enzyme
T1 construct: purchased Sigma-Aldrich
T1 sequence (P21397 1-527): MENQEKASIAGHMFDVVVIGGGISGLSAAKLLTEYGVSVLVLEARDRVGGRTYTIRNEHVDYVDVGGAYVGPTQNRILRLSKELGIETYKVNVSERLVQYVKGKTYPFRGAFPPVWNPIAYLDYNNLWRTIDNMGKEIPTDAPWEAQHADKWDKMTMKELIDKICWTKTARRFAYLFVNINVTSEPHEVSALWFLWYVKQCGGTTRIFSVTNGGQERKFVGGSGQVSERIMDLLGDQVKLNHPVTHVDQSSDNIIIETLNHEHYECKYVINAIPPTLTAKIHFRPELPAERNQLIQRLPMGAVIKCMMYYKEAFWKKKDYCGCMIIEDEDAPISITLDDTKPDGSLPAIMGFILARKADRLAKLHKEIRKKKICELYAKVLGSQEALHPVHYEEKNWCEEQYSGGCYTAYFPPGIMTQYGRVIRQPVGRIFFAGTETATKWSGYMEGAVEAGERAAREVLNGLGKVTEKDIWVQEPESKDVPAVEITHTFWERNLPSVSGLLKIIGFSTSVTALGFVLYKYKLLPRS
Description: (§1) Recombinant hMAO-A and hMAO-B activities were assayed while using kynuramine (0.06 mM) and benzylamine (0.3 mM) as substrates, respectively, as described previously. […] AChE activity was measured using Type VI-S from Electrophorus electricus in the presence of 0.5 mM 5,5’-dithiobis(2-nitrobenzoic acid) and 0.5 mM acetylthiocholine iodide, as described previously. Enzymes and chemicals were purchased from Sigma–Aldrich (St. Louis, MO, USA).
(§2) AChE inhibitory activities were also determined, except at a concentration of 10 µM. […] Kinetic experiments were carried out at five substrate and three inhibitor concentrations.

[2] = biological target: T2, MAO-B (Homo sapiens, UniProt P27338); experiment: Reversibility of MAO-B inhibition by dialysis; type: biochemical; conditions: for Reversibility of MAO-B inhibition: dialysis method
T2 construct: purchased Sigma-Aldrich
T2 sequence (P27338 1-520): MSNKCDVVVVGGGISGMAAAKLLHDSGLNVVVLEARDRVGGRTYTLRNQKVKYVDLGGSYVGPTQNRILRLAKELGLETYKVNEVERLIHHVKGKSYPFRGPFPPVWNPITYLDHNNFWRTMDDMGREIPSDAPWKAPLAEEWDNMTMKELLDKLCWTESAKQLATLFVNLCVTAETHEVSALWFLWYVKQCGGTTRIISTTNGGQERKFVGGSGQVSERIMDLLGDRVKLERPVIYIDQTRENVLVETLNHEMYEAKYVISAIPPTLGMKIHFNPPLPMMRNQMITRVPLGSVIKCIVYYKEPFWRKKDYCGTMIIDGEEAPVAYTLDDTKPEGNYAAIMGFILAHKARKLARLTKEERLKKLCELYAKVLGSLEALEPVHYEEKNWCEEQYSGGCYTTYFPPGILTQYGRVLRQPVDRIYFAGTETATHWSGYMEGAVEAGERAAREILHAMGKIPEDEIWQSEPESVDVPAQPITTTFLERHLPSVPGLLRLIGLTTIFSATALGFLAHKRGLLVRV
Source text: Relative activities of undialyzed (AU) and dialyzed (AD) samples were used to determine the reversibilities.

[3] = biological target: T3, AChE (Type VI-S from Electrophorus electricus) (Electrophorus electricus, UniProt O42275); experiment: AChE inhibition assay (DTNB / acetylthiocholine iodide); type: biochemical; conditions: for remaining activity at 10 µM: compound at 10 µM, mean ± standard error of duplicate experiments, read-out: Residual Activity (%) AChE (10 µM)
T3 construct: purchased Sigma-Aldrich Type VI-S
Description: AChE activity was measured using Type VI-S from Electrophorus electricus in the presence of 0.5 mM 5,5’-dithiobis(2-nitrobenzoic acid) and 0.5 mM acetylthiocholine iodide, as described previously. Enzymes and chemicals were purchased from Sigma–Aldrich (St. Louis, MO, USA).
Kinetic experiments were carried out at five substrate and three inhibitor concentrations.

[4] = biological target: T2, MAO-B; experiment: biochemical; conditions: for SI (selectivity index, ratio of IC50 MAO-A to MAO-B): MAO-A vs. MAO-B IC50 ratio; for IC50: mean ± standard error of duplicates, reference compounds after 30 min preincubation with enzyme, read-out: IC50 (µM) MAO-B; for remaining activity at 1 µM: read-out: Residual Activity (%) MAO-B (1.0 µM)
Description: as §1, with “USA). […]” for “USA).”

[5] = biological target: T2, MAO-B; experiment: Kinetics of MAO-B inhibition (Lineweaver-Burk and secondary plots); type: biochemical; conditions: for Mode of MAO-B inhibition: Lineweaver-Burk plots; for Ki: competitive inhibition, secondary plots of slopes vs. inhibitor concentration
Description: as §2

[6] = biological target: T2, MAO-B; conditions: read-out: IC50 MAO-B of earlier chalcone derivative; cited from earlier work

T3 sequence (O42275 24-633): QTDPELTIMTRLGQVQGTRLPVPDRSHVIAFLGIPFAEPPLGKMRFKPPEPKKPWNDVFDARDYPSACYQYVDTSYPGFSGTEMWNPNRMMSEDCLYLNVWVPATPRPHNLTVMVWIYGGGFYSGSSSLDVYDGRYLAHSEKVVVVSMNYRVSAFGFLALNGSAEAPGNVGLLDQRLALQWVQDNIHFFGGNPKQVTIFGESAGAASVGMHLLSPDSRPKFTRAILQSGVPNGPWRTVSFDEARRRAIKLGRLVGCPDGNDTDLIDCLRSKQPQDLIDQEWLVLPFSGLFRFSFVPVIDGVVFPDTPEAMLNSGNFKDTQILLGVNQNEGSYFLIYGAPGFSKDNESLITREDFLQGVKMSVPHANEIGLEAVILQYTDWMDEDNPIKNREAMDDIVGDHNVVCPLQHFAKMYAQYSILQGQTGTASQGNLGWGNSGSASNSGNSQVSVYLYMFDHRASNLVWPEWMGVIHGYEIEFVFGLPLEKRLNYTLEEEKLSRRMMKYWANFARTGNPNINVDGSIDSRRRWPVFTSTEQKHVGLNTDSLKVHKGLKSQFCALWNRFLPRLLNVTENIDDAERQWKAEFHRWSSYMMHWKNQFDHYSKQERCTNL

| Compound | remaining activity at 1 µM [1] | IC50 [1] | Reversibility of MAO-B inhibition [2] | Relative MAO-B activity, dialyzed (AD) ([2]; ~2 × IC50 of inhibitor, 30 min preincubation, after dialysis) | Relative MAO-B activity, undialyzed (AU) ([2]; ~2 × IC50 of inhibitor, 30 min preincubation, undialyzed) | IC50 [3] | remaining activity at 10 µM [3] | MAO-B potency relative to clorgyline (times more potent) [4] | MAO-B potency relative to lazabemide (times more potent) [4] | MAO-B potency relative to pargyline (times more potent) [4] | SI (selectivity index, ratio of IC50 MAO-A to MAO-B) [4] | IC50 [4] | remaining activity at 1 µM [4] | Mode of MAO-B inhibition [5] | Ki [5] | IC50 [6] |
| --- | --- | --- | --- | --- | --- | --- | --- | --- | --- | --- | --- | --- | --- | --- | --- | --- |
| O=C(/C=C/c1ccc(ON=C2CCCCC2)cc1)c1ccc(F)cc1 [COE-6] | 76.8 ± 3.98% | 4 ± 0.021 µM | reversible inhibitors | 81.1% | 19.7% | > 40000 nM | 79.4 ± 3.97% | 105.6 times and 105 times | 2.33 times and 2.3 times | 1.1 times | 222.2 | 0.02 µM and 0.018 µM | -1.06 ± 1.84% | competitively inhibited | 7.5 nM |  |
| COc1ccc(/C=C/C(=N/Oc2ccc(/C=C/C(=O)c3ccc(F)cc3)cc2)c2ccc(OC)cc2)cc1 [COE-22] | 81.8 ± 0.99% |  | reversible inhibitors |  |  |  | < 50% |  |  |  |  | 0.028 ± 0.0042 µM | 5.47 ± 0.21% | competitively inhibited | 10 nM |  |
| COc1ccc(/C=C/C(=O)c2ccc(O/N=C(/C=C/c3ccc(OC)cc3)c3ccc(OC)cc3)cc2)cc1 [COE-23] | 85.1 ± 4.01% | > 10 µM |  |  |  | 9160 ± 21 nM | 57.3 ± 1.34% |  |  |  | >66.7 | 0.15 ± 0.021 µM | 25.8 ± 4.78% |  |  |  |
| COc1ccc(C(/C=C/c2ccccc2)=N\Oc2ccc(C(=O)/C=C/c3cc(OC)c(OC)c(OC)c3)cc2)cc1 [COE-24] | 88.9 ± 0.98% | > 10 µM |  |  |  | > 40000 nM | 72.5 ± 2.91% |  |  |  |  | > 10 µM | 87.4 ± 2.81% |  |  |  |
| CCO/C(C)=N/Oc1ccc(/C=C/C(=O)c2ccc(F)cc2)cc1 [L3, ethyl (1E)-N-{4-[(1E)-3-(4-fluorophenyl)-3-oxoprop-1-en-1-yl]phenoxy}ethanimidate] |  |  |  |  |  |  |  |  |  |  |  |  |  |  |  | 53 nM |
